From patent publication EP0437382A1, “Thimidin derivatives, their preparation and compositions containing them” (RHONE-POULENC SANTE, priority 1990, dated 1991)
In brackets after ≈: the same amount, converted by molar mass.

Tests used:
[1] = tested on: virus HIV (LAV-1-BRU); assay: microbe, parasite or virus in culture; format: cell-based; settings: for Cellules infectées densité optique DO 600: control (0 µg/ml) 0.293
Protocol: (§1) Dans ce qui suit on décrit les résultats sur l'effet cytopathogène et la multiplication du virus HIV dans une lignée cellulaire permissive (cellules lymphoblastoïdes humaines CEM).
(§2) Le test est réalisé sur la lignée lymphoblastoïde CEM clone 13. Dans une microplaque de 96 puits on dépose 25 µl/puit d'une solution de produit à tester ou de tampon phosphate isotonique (TPI) dans le cas des contrôles. Les produits sont étudiés à différentes concentrations (souvent 8), à raison de 4 puits par concentration. On ajoute alors 125 µl d'une suspension de cellules CEM dans le milieu RPMI contenant 10 % de sérum de veau foetal, 40 U/ml de pénicilline, 40 µg/ml de streptomycine et 5 µg/ml de polybrène (3500 cellules par puit) et les microplaques sont incubées une heure à 37°C, sous une atmosphère contenant 5 % de gaz carbonique. L'essai est fait en double: une partie sur cellules infectées, pour la détermination de l'activité antivirale et l'autre partie sur cellules non infectées, pour déterminer la cytotoxité des produits. On infecte la première série avec HIV (100 µl par puit d'une suspension de virus LAV-1-BRU contenant 200-300 TCID50) tandis que l'autre série reçoit 100 µl de milieu RPMI tel que défini précédemment. Après 7 jours d'incubation, 175 µl de surnageant sont prélevés et seront utilisés par la suite pour le dosage de la reverse transcriptase. La viabilité cellulaire est déterminée selon une modification de la technique décrite par R. PAUWELS et coll., J. Virol. Meth., 20, 309-321 (1988).
(§3) Les puits, contenant encore les cellules (infectées ou non infectées), reçoivent 10 µl d'une solution de MTT (méthylthiazoletétrazolium) à 5 mg/ml dans du tampon phosphate isotonique. Pendant une période d'incubation de 4 heures, le MTT est converti en un sel de formazan (bleu) à l'intérieur des cellules vivantes et proportionnellement à leur nombre, alors que rien n'apparaît dans les puits ne contenant plus que des cellules mortes. On ajoute alors 120 µl d'isopropanol (contenant 0,04 mole/l d'acide chlorhydrique) et les microplaques sont agitées jusqu'à la solubilisation du bleu de formazan. […]
(§4) Dans ces conditions les cellules infectées sont lysées à environ 60-70 % par rapport aux cellules non infectées. On établit la concentration du produit qui inhibe l'effet cytopathogène du virus de 50 % (CE50). On détermine également celle qui inhibe de 50 % la croissance des cellules non infectées (CC50). Le rapport entre CC50 et CE50 est défini comme l'indice de sélectivité antivirale i.

[2] = Cytotoxicity on non-infected CEM cells (MTT viability); format: cell-based, humaines; settings: human; non-infected CEM cells, 7 days; read-out: CC50 (concentration qui inhibe de 50 % la croissance des cellules non infectées)
Protocol: as §1, §2, §3, §4

[3] = tested on: lignée lymphoblastoïde CEM clone 13, cellules non infectées; assay: as above; format: cell-based, humaines; settings: 7 days, control (0 µg/ml) 0.954
Protocol: as §1, §2, §3, §4

[4] = tested on: transcriptase inverse du virus HIV; assay: Viral multiplication by reverse transcriptase assay on culture supernatant; format: cell-based; settings: 0,1 µg/cm³
Protocol: as §2, with “(1988). […]” for “(1988).”

[5] = tested on: précurseurs granulocytaires/macrophagiques de la moelle osseuse; assay: CFU-G/M test (bone marrow granulocyte/macrophage precursors, clone formation); format: cell-based, humaine; settings: CFU-GM, human bone marrow, read-out: concentration inhibitrice de 50% de la formation des clones
Text: (§5) Enfin, les produits selon l'invention manifestent un intérêt considérable du fait de leur absence de toxicité à des concentrations élevées à l'égard des précurseurs hématopoietiques de la moelle humaine.
(§6) Il est en effet connu que l'un des problèmes majeurs associés au traitement par certains produits de cette classe, est la toxicité sur les précurseurs erythrocytaires et granulocytaires/macrophagiques de la moelle osseuse, qui se traduit du point de vue clinique dans des sévères anémies et leucopénies [D.D. RICHMAN et al., N. Engl. J. Med., 317, 192-197, (1987). R. YARCHOAN et al., Lancet i, 575-580, (1986)]. Cette toxicité peut être mise en évidence au niveau du laboratoire par des tests in vitro, sur des précurseurs erythrocytaires et granulocytaires/macrophagiques de la moelle osseuse (J.P. SOMMADOSSI et R. CARLISLE, Antimicro. Ag. Chemother., 31, 452-454, (1987). L'étude est mise en oeuvre dans les techniques de D. THIERRY et al., Acta Radiol., 24, 521-526, (1985) et D. METCALF, Hematopoietic Colony Stimulating factors, p 88-89, Elsevier (1984).
(§7) Dans le test CFU-G/M, la concentration inhibitrice de 50% de la formation des clones est de 30 µg/ml.

[6] = tested on: précurseurs erythrocytaires de la moelle osseuse; assay: BFU-E test (bone marrow erythrocyte precursors); format: cell-based, humaine; settings: 108 µg/ml, human bone marrow
Text: as §5, §6, §7

SMILES: Cc1cn([C@H]2C[C@H](N=[N+]=[N-])[C@@H](CO)O2)c(=O)n(N)c1=O [Exemple 1, azido-3′ amino-3 désoxy-3′ thymidine]
- Cellules infectées densité optique DO 600 ([1]; 0.0003 µg/ml, 7 days): 0.311
- Cellules infectées densité optique DO 600 ([1]; 0.001 µg/ml, 7 days): 0.359
- Cellules infectées densité optique DO 600 ([1]; 0.003 µg/ml, 7 days): 0.456
- Cellules infectées densité optique DO 600 ([1]; 0.01 µg/ml, 7 days): 0.565
- Cellules infectées densité optique DO 600 ([1]; 0.03 µg/ml, 7 days): 0.577
- Cellules infectées densité optique DO 600 ([1]; 0.1 µg/ml, 7 days): 0.596
- Cellules infectées densité optique DO 600 ([1]; 0.3 µg/ml, 7 days): 0.838
- Cellules infectées densité optique DO 600 ([1]; 1 µg/ml, 7 days): 0.926
- Cellules infectées densité optique DO 600 ([1]; 3 µg/ml, 7 days): 0.865
- Cellules infectées densité optique DO 600 ([1]; 10 µg/ml, 7 days): 0.441
- Cellules infectées densité optique DO 600 ([1]; 30 µg/ml, 7 days): 0.007
- EC50 ([1]; Human immunodeficiency virus 1, CCRF-CEM, 168 h, infected CEM cells, 7 days, read-out: CE50 (concentration qui inhibe l'effet cytopathogène du virus de 50 %)): 0.01 µg/mL (≈ 0.0354 µM)
- indice de sélectivité i = CC50/CE50 ([1]; human, cem cells, 168 h): 1000
- CC50 at 168 h [2]: 10 µg/mL (≈ 35.4 µM)
- cellules non infectées densité optique DO 600 ([3]; 0.0003 µg/ml): 0.935
- cellules non infectées densité optique DO 600 ([3]; 0.001 µg/ml): 0.888
- cellules non infectées densité optique DO 600 ([3]; 0.003 µg/ml): 0.882
- cellules non infectées densité optique DO 600 ([3]; 0.01 µg/ml): 0.884
- cellules non infectées densité optique DO 600 ([3]; 0.03 µg/ml): 0.901
- cellules non infectées densité optique DO 600 ([3]; 0.1 µg/ml): 0.928
- cellules non infectées densité optique DO 600 ([3]; 0.3 µg/ml): 0.931
- cellules non infectées densité optique DO 600 ([3]; 1 µg/ml): 0.909
- cellules non infectées densité optique DO 600 ([3]; 3 µg/ml): 0.892
- cellules non infectées densité optique DO 600 ([3]; 10 µg/ml): 0.368
- cellules non infectées densité optique DO 600 ([3]; 30 µg/ml): 0.004
- activité de la transcriptase inverse, coups par minute (cpm) ([4]; untreated infected cultures 204363 cpm): 44558 cpm
- inhibition at 0.1 µg/mL ([4]; Human immunodeficiency virus 1, CCRF-CEM, 168 h, culture supernatant after 7 days, read-out: % d'inhibition (reverse transcriptase du virus HIV)): 80%
- IC50 [5]: 30 µg/mL (≈ 106 µM)
- toxicité dans le test BFU-E [6]: dépourvu de toxicité
